# Reference: patent publication US5389643A, “Aminobenzoic acid derivatives useful for treating gastro-intestinal conditions” (Eisai Co., Ltd., priority 1992, dated 1995)
# Counter-ions that a name gives are not always drawn. Like-named read-outs stand apart in the source and are kept apart here.
# Columns and labels:
# [1] = test system: contraction of guinea pig ileum induced by electrical field stimulation (acetylcholine release); assay: Effect of increasing contraction of guinea pig ileum induced by electrical field stimulation; format: cell-based; settings: electrical field stimulation once per 10 seconds, cumulative addition at intervals of 10 minutes, 37° C., read-out: Min. concn. causing increment of ileal contraction
# Procedure: Effect of increasing contraction of guinea pig ileum induced by electrical field stimulation
# This experiment was made according to the method of Sanger et al. [see Br. J. Pharmacol., 91, 77-87 (1987)]. The longitudinal muscle of the nonterminal ileum of a guinea pig was separated and vertically suspended in the Krebs-Henseleit solution (37° C.) in a Magnus tube by applying a load of 0.5 g to the end of the muscle. A mixed gas comprising 95% of oxygen and 5% of carbon dioxide was passed through the solution. The contraction of the muscle was isometrically determined. Electrical field stimulation was applied to the muscle by the use of a platinum electrode once per 10 seconds to induce the contraction of the muscle. The contraction was caused through the release of acetylcholine. After the muscle had been stabilized, a solution of a test compound was cumulatively added into the Magnus tube at intervals of 10 minutes. The effect of the test compound is represented by percentage based on the initial contraction. The minimum concentration of each test compound at which an increment was found in the contraction due to the release of acetylcholine is shown in Table 4.
# [2] = test system: gastric emptying function; assay: Activity for raising gastric emptying function; format: in vivo, Fischer male rats; settings: oral (5 ml/kg), one hour before test food, versus control rat
# Procedure: Activity for raising gastric emptying function
# This experiment was made according to the method of Decktot et al. [see Eur. J. Pharmacol., 147, 313-316 (1988)]. Fischer male rats (weight: 160 to 180 g) were fasted for 18 hours before 3 ml of a test food comprising methylcellulose, beef broth, casein, sugar and corn starch was orally administered to each rat. One hour after the administration, the stomach was extirpated from each rat. The gastric emptying ratio was calculated from the weight of the test food remaining in the stomach. The ratio of rise of the gastric emptying function was determined by comparing the gastiric emptying ratio of a medicated rat with that of a control rat which had not administered any test compounds. Each test compound (5 ml/kg) was orally administered one hour before the administration of the test food. BRL 24682 was used as a control in this experiment.
SMILES,"minimal effective concentration ([1]; Cavia porcellus, 10 min) [µM]",further results
"C#CC(CC)Oc1cc(N)c(Cl)cc1C(=O)N[C@H]1C[C@H]2CC[C@@H](C1)N2C (stereo partly drawn) [Example 20, endo-4-Amino-5-chloro-N-(8-methyl-8-azabicyclo[3.2.1]oct-3-yl)-2-{(1-pentyn-3-yl)oxy}benzamide hydrochloride]",0.11,
"CN1[C@@H]2CC[C@H]1C[C@@H](NC(=O)c1cc(Cl)c(N)cc1OCCCC#N)C2 [Example 31, endo-4-Amino-5-chloro-2-(3-cyanopropoxy)-N-(8-methyl-8-azabicyclo[3.2.1]oct-3-yl)benzamide hydrochloride]",> 100,
"C#CCCOc1cc(N)c(Cl)cc1C(=O)N[C@H]1C[C@H]2CC[C@@H](C1)N2C [Example 46, endo-4-Amino-2-(3-butynyloxy)-5-chloro-N-(8-methyl-8-azabicyclo[3.2.1]oct-3-yl)benzamide hydrochloride]",0.16,
"CC#CCCOc1cc(N)c(Cl)cc1C(=O)N[C@H]1C[C@H]2CC[C@@H](C1)N2C [Example 23, endo-4-Amino-5-chloro-N-(8-methyl-8-azabicyclo[3.2.1]oct-3-yl)-2-(3-pentynyloxy)benzamide hydrochloride]",> 100,
"C#CC(CC)Oc1cc(N)c(Cl)cc1C(=O)N[C@H]1C[C@H]2CC[C@@H](C1)N2C (single isomer, unassigned; (-)) [Example 37, (-)-endo-4-Amino-5-chloro-N-(8-methyl-8-azabicyclo[3.2.1]oct-3-yl)-2-{(1-pentyn-3-yl)oxy}benzamide hydrochloride]",,"minimal effective concentration ([1]; listed as 37 (+)-isomer, hydrochloride): 0.048 µM; Ratio of rise of gastric emptying function ([2]; listed as 37 (-)-isomer, hydrochloride): 15.3%"
"CC#CCOc1cc(N)c(Cl)cc1C(=O)N[C@H]1C[C@H]2CC[C@@H](C1)N2C [Example 22, endo-4-Amino-2-(2-butynyloxy)-5-chloro-N-(8-methyl-8-azabicyclo[3.2.1]oct-3-yl)benzamide hydrochloride]",> 100,
"CN1[C@@H]2CC[C@H]1C[C@@H](NC(=O)c1cc(Cl)c(N)cc1OCCF)C2 [Example 30, endo-4-Amino-5-chloro-2-(2-fluoroethoxy)-N-(8-methyl-8-azabicyclo[3.2.1]oct-3-yl)benzamide hydrochloride]",0.038,
"C#CCC(C)Oc1cc(N)c(Cl)cc1C(=O)N[C@H]1C[C@H]2CC[C@@H](C1)N2C (stereo partly drawn) [Example 40, endo-4-Amino-5-chloro-N-(8-methyl-8-azabicyclo[3.2.1]oct-3-yl)-2-{(4-pentyn-2-yl)oxy}benzamide hydrochloride]",0.22,Ratio of rise of gastric emptying function [2]: 16.2%
"C#CC(C)Oc1cc(N)c(Cl)cc1C(=O)N[C@H]1C[C@H]2CC[C@@H](C1)N2C (stereo partly drawn) [Example 24, endo-4-Amino-2-{(3-butyn-2-yl)oxy}-5-chloro-N-(8-methyl-8-azabicyclo[3.2.1]oct-3-yl)benzamide hydrochloride]",0.17,Ratio of rise of gastric emptying function [2]: 13.2%
"CCC#CC(C)Oc1cc(N)c(Cl)cc1C(=O)N[C@H]1C[C@H]2CC[C@@H](C1)N2C (stereo partly drawn) [Example 28, endo-4-Amino-5-chloro-2-{(3-hexyn-2-yl)oxy}-N-(8-methyl-8-azabicyclo[3.2.1]oct-3-yl)benzamide hydrochloride]",> 100,
